Results on eleven compounds are retold here after PubChem BioAssay AID248 (DTP/NCI, 2004).

The test concerns L1210 leukemia ip in BDF1 mice, survival T/C. Briefly: NCI In Vivo Anticancer Drug Screen. Data for tumor model L1210 Leukemia (intraperitoneal) in B6D2F1 (BDF1) mice. The conditions noted are these: endpoint: mean survival time, higher = longer survival. The gist of the method: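 Transplanted-tumor mice were given test agent; controls received vehicle only. Survival readings from the two groups were divided (treated over control).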

The mark [1] stands for this setting: dose: 100.0 mg/kg/injection, schedule: Q01DX001 (ip), vehicle: carboxymethylcellulose (CMC).
Setting [2] is: dose: 200.0 mg/kg/injection, schedule: Q01DX001 (ip), vehicle: carboxymethylcellulose (CMC).
The mark [3] stands for this setting: dose: 400.0 mg/kg/injection, schedule: Q01DX001 (ip), vehicle: carboxymethylcellulose (CMC).
Setting [4] is: dose: 100.0 mg/kg/injection, schedule: Q01DX009 (ip), vehicle: Klucel (hydroxypropylcellulose) (HPC).
[5] abbreviates: dose: 100.0 mg/kg/injection, schedule: Q04DX003 (ip), vehicle: Klucel (hydroxypropylcellulose) (HPC).
Where [6] appears, read: dose: 200.0 mg/kg/injection, schedule: Q04DX003 (ip), vehicle: Klucel (hydroxypropylcellulose) (HPC).

Molecules are shown by their SMILES. Values joined by “and” are separate entries in the source; they are usually repeats but may differ in a detail not shown here. Equal values may be shown once. Toxic doses and inconclusive results are not listed.

In the case of `CC(CCC/C=C/CCCN(C)C(=N)N)CC(C)C1OC(=O)C(C)C(O)/C=C/C(C)C(O)C(C)C(O)C(C)C(O)CCCC(O)CC2(O)OC(CC(OC(=O)CC(=O)O)CC(O)CC(O)C(C)C(O)/C=C/C=C/C1C)CC(O)C2O` (centres undefined), the T/C reads like this: (dose: 0.48 mg/kg/injection, schedule: Q01DX009 (ip), vehicle: saline) 90 % of control; (dose: 0.73 mg/kg/injection, schedule: Q01DX009 (ip), vehicle: saline) 92 % of control; (dose: 0.96 mg/kg/injection, schedule: Q04DX003 (ip), vehicle: saline) 106 % of control; (dose: 1.09 mg/kg/injection, schedule: Q01DX009 (ip), vehicle: saline) 92 % of control; (dose: 1.46 mg/kg/injection, schedule: Q04DX003 (ip), vehicle: saline) 104 % of control; (dose: 2.18 mg/kg/injection, schedule: Q04DX003 (ip), vehicle: saline) 120 % of control. Moreover, the T/C runs as follows: (dose: 3.2 mg/kg/injection, schedule: Q04DX003 (ip), vehicle: saline) 97 % of control; (dose: 4.9 mg/kg/injection, schedule: Q04DX003 (ip), vehicle: saline) 103 % of control and 86 % of control; (dose: 7.3 mg/kg/injection, schedule: Q04DX003 (ip), vehicle: saline) 92 % of control; (dose: 23.0 micrograms/kg/injection, schedule: Q01DX001 (ip), vehicle: saline) 98 % of control; (dose: 23.0 micrograms/kg/injection, schedule: Q01DX009 (ip), vehicle: saline) 100 % of control; (dose: 23.0 micrograms/kg/injection, schedule: Q04DX003 (ip), vehicle: saline) 105 % of control. Also, the T/C reads like this: (dose: 47.0 micrograms/kg/injection, schedule: Q01DX001 (ip), vehicle: saline) 104 % of control; (dose: 47.0 micrograms/kg/injection, schedule: Q01DX009 (ip), vehicle: saline) 108 % of control; (dose: 47.0 micrograms/kg/injection, schedule: Q04DX003 (ip), vehicle: saline) 106 % of control; (dose: 95.0 micrograms/kg/injection, schedule: Q01DX001 (ip), vehicle: saline) 97 % of control; (dose: 95.0 micrograms/kg/injection, schedule: Q01DX009 (ip), vehicle: saline) 94 % of control; (dose: 95.0 micrograms/kg/injection, schedule: Q04DX003 (ip), vehicle: saline) 101 % of control. Also, the T/C (dose: 141.0 micrograms/kg/injection, schedule: Q01DX009 (ip), vehicle: saline) was 106 % of control; the T/C (dose: 141.0 micrograms/kg/injection, schedule: Q04DX003 (ip), vehicle: saline) was 97 % of control; the T/C (dose: 215.0 micrograms/kg/injection, schedule: Q01DX009 (ip), vehicle: saline) was 105 % of control; the T/C (dose: 215.0 micrograms/kg/injection, schedule: Q04DX003 (ip), vehicle: saline) is 100 % of control; the T/C (dose: 322.0 micrograms/kg/injection, schedule: Q01DX009 (ip), vehicle: saline) is 103 % of control; the T/C (dose: 322.0 micrograms/kg/injection, schedule: Q04DX003 (ip), vehicle: saline) is 103 % of control.

Take `S=C(NP(=S)(NC(=S)N1CC1)NC(=S)N1CC1)N1CC1`: the T/C is 95 % of control under setting [1], 91 % of control under setting [2] and 90 % of control under setting [3].

Consider `O=C(Oc1ccccc1Cl)c1ccc(Cl)c(Cl)c1`, for which the T/C by setting is: under setting [4], 98 % of control; under setting [5], 95 % of control; (dose: 200.0 mg/kg/injection, schedule: Q01DX009 (ip), vehicle: Klucel (hydroxypropylcellulose) (HPC)) 93 % of control; under setting [6], 90 % of control; (dose: 400.0 mg/kg/injection, schedule: Q01DX009 (ip), vehicle: Klucel (hydroxypropylcellulose) (HPC)) 90 % of control; (dose: 400.0 mg/kg/injection, schedule: Q04DX003 (ip), vehicle: Klucel (hydroxypropylcellulose) (HPC)) 90 % of control.

For the compound `O=NN(CCCl)C(=O)Nc1ccc2c(c1)Cc1ccccc1-2`, the T/C reads like this: (dose: 10.0 mg/kg/injection, schedule: Q01DX009 (ip), vehicle: other) 156 % of control; (dose: 20.0 mg/kg/injection, schedule: Q01DX009 (ip), vehicle: other) 167 % of control; (dose: 40.0 mg/kg/injection, schedule: Q01DX009 (ip), vehicle: other) 113 % of control; (dose: 44.0 mg/kg/injection, schedule: Q01DX009 (ip), vehicle: carboxymethylcellulose (CMC)) 164 % of control; (dose: 66.0 mg/kg/injection, schedule: Q01DX009 (ip), vehicle: carboxymethylcellulose (CMC)) 208 % of control; (dose: 100.0 mg/kg/injection, schedule: Q01DX009 (ip), vehicle: carboxymethylcellulose (CMC)) 175 % of control. In addition, the T/C (dose: 150.0 mg/kg/injection, schedule: Q01DX009 (ip), vehicle: carboxymethylcellulose (CMC)) was 96 % of control and the T/C (dose: 300.0 mg/kg/injection, schedule: Q01DX001 (ip), vehicle: carboxymethylcellulose (CMC)) is 102 % of control.

Turning to `O=c1[nH]c(=S)n2ncnc2[nH]1`, the T/C was 109 % of control (dose: 100.0 mg/kg/injection, schedule: Q04DX003 (ip), vehicle: saline with Tween-80); 102 % of control (dose: 200.0 mg/kg/injection, schedule: Q04DX003 (ip), vehicle: saline with Tween-80); 95 % of control (dose: 400.0 mg/kg/injection, schedule: Q04DX003 (ip), vehicle: saline with Tween-80).

As to `ClC1=C(Cl)C2(Cl)C3(Cl)C(Cl)=C(Cl)C(Cl)(C3c3ccccc3)C2(Cl)C1c1ccccc1` (centres undefined), the T/C (dose: 50.0 mg/kg/injection, schedule: Q04DX003 (ip), vehicle: Klucel (hydroxypropylcellulose) (HPC)) was 94 % of control; the T/C (dose: 100.0 mg/kg/injection, schedule: Q01DX009 (ip), vehicle: saline sonified) was 96 % of control; the T/C under setting [5] was 97 % of control; the T/C (dose: 200.0 mg/kg/injection, schedule: Q01DX009 (ip), vehicle: saline sonified) is 96 % of control; the T/C under setting [6] was 89 % of control; the T/C (dose: 400.0 mg/kg/injection, schedule: Q01DX009 (ip), vehicle: saline sonified) is 91 % of control.

`O=C(CBr)Nc1cccc(S(=O)(=O)F)c1`: the T/C (dose: 1.25 mg/kg/injection, schedule: Q01DX009 (ip), vehicle: carboxymethylcellulose (CMC)) is 89 % of control; the T/C (dose: 2.5 mg/kg/injection, schedule: Q01DX009 (ip), vehicle: carboxymethylcellulose (CMC)) was 93 % of control; the T/C (dose: 2.5 mg/kg/injection, schedule: Q04DX003 (ip), vehicle: carboxymethylcellulose (CMC)) was 100 % of control; the T/C (dose: 5.0 mg/kg/injection, schedule: Q01DX009 (ip), vehicle: carboxymethylcellulose (CMC)) is 86 % of control; the T/C (dose: 5.0 mg/kg/injection, schedule: Q04DX003 (ip), vehicle: carboxymethylcellulose (CMC)) is 100 % of control; the T/C (dose: 10.0 mg/kg/injection, schedule: Q01DX001 (ip), vehicle: carboxymethylcellulose (CMC)) was 96 % of control. Moreover, the T/C (dose: 10.0 mg/kg/injection, schedule: Q04DX003 (ip), vehicle: carboxymethylcellulose (CMC)) is 93 % of control.

Consider `Nc1nc(N)c(CCCCc2ccccc2)c(C=O)n1`, for which the T/C under setting [4] is 98 % of control.

Take `CC(=O)OC1=CC(=O)C(OC(C)=O)=C(c2c(C)cc(C)c(Br)c2C)C1=O`: the T/C was 91 % of control (dose: 50.0 mg/kg/injection, schedule: Q01DX001 (ip), vehicle: saline); 95 % of control (dose: 100.0 mg/kg/injection, schedule: Q01DX001 (ip), vehicle: saline); 101 % of control (dose: 200.0 mg/kg/injection, schedule: Q01DX001 (ip), vehicle: saline).

For `CCOC(=O)NC1CC2CCC1C2` (centres undefined), the T/C by setting is: (dose: 50.0 mg/kg/injection, schedule: Q01DX001 (ip), vehicle: carboxymethylcellulose (CMC)) 110 % of control; under setting [1], 103 % of control; under setting [2], 103 % of control; under setting [3], 103 % of control.

`O=c1[nH]cc(COCC(F)(F)C(F)F)c(=O)[nH]1`: the T/C by setting is: (dose: 50.0 mg/kg/injection, schedule: Q01DX005 (ip), vehicle: other) 101 % of control; (dose: 100.0 mg/kg/injection, schedule: Q01DX005 (ip), vehicle: other) 104 % of control; (dose: 200.0 mg/kg/injection, schedule: Q01DX005 (ip), vehicle: other) 95 % of control; (dose: 400.0 mg/kg/injection, schedule: Q01DX005 (ip), vehicle: other) 95 % of control.
